Molecules are shown by their SMILES. Starred links: 1 amine or outer side, 2 acyl side, 3 side chain; linkers in the order of their positions; H or OH if unused. Positions of bridges follow the written chain, without caps; N, C: chain ends. Residues, ends and D or L forms follow the SMILES beside them. *: point of attachment. C20 diacid = O=C(O)CCCCCCCCCCCCCCCCCCC(=O)*; γGlu = O=C(O)[C@H](CCC(=O)[*:2])N[*:1]

A short description of one data set: Assay (III) ThT fibrillation assay for physical stability. In kind it is physicochemical. The settings on record: pH 4.0. In a few lines: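 Freshly prepared, pH-adjusted formulations with 1 μM ThT incubated at 37 °C under 960 rpm orbital shaking (1 mm), fluorescence (ex 444, em 485 nm) read every 20 min. […] Peptide content before and after measured by reverse-phase HPLC against pramlintide standard.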
For the compound `CC[C@H](C)[C@H](NC(=O)[C@@H]1CCCN1C(=O)CNC(=O)[C@H](Cc1ccccc1)NC(=O)[C@H](CO)NC(=O)[C@H](CO)NC(=O)[C@H](CO)NC(=O)[C@H](CO)NC(=O)[C@H](CCCNC(=N)N)NC(=O)[C@H](Cc1cnc[nH]1)NC(=O)[C@H](CC(C)C)NC(=O)[C@H](Cc1ccccc1)NC(=O)[C@H](CCC(=O)O)NC(=O)[C@H](C)NC(=O)[C@H](CC(C)C)NC(=O)[C@H](CCCNC(=N)N)NC(=O)[C@H](CCC(N)=O)NC(=O)[C@@H](NC(=O)[C@H](C)NC(=O)[C@@H]1CSSC[C@H](NC(=O)[C@H](Cc2cnc[nH]2)NC(=O)CC[C@H](NC(=O)CCCCCCCCCCCCCCCCCCC(=O)O)C(=O)O)C(=O)N[C@@H](CC(N)=O)C(=O)N[C@@H]([C@@H](C)O)C(=O)N[C@@H](C)C(=O)N[C@@H]([C@@H](C)O)C(=O)N1)[C@@H](C)O)C(=O)N[C@@H](CC(C)C)C(=O)N1CCC[C@H]1C(=O)N1CCC[C@H]1C(=O)N[C@H](C(=O)N[C@@H](CC(=O)O)C(=O)N[C@H](C(=O)NCC(=O)N[C@@H](CO)C(=O)N[C@@H](CC(=O)O)C(=O)N[C@H](C(=O)N[C@@H](Cc1ccc(O)cc1)C(N)=O)[C@@H](C)O)C(C)C)[C@@H](C)O` [Example 9, N-alpha-[(S)-4-Carboxy-4-(19-carboxynonadecanoylamino)butyryl]-[His1,Glu14,His17,Arg18,Ser21,Ser22,Asp31,Asp35]-pramlintide] ({C20 diacid-γGlu}-HCNTATCATQRLAEFLHRSSSSFGPILPPTDVGSDTY-NH2; disulfide 2-7), the “ThT pH 4.0 lag time (physical stability in fibrillogenesis assay)” value is above 45 h.

With `CC[C@H](C)[C@H](NC(=O)[C@@H]1CCCN1C(=O)CNC(=O)[C@H](Cc1ccccc1)NC(=O)[C@H](CC(N)=O)NC(=O)[C@H](CCC(N)=O)NC(=O)[C@H](CO)NC(=O)[C@H](CO)NC(=O)[C@H](Cc1c[nH]cn1)NC(=O)[C@H](CCCNC(=N)N)NC(=O)[C@H](CC(C)C)NC(=O)[C@H](Cc1ccccc1)NC(=O)[C@H](CCC(=O)O)NC(=O)[C@H](C)NC(=O)[C@H](CC(C)C)NC(=O)[C@H](CCCNC(=N)N)NC(=O)[C@H](CCC(N)=O)NC(=O)[C@@H](NC(=O)[C@H](C)NC(=O)[C@@H]1CSSC[C@H](NC(=O)[C@H](CCC(=O)O)NC(=O)[C@H](CCCNC(=N)N)NC(=O)[C@H](CCC(=O)O)NC(=O)CC[C@H](NC(=O)CCCCCCCCCCCCCCCCCCC(=O)O)C(=O)O)C(=O)N[C@@H](CC(N)=O)C(=O)N[C@@H]([C@@H](C)O)C(=O)N[C@@H](C)C(=O)N[C@@H]([C@@H](C)O)C(=O)N1)[C@@H](C)O)C(=O)N[C@@H](CC(C)C)C(=O)N1CCC[C@H]1C(=O)N1CCC[C@H]1C(=O)N[C@H](C(=O)N[C@@H](CC(N)=O)C(=O)N[C@H](C(=O)NCC(=O)N[C@@H](CO)C(=O)N[C@@H](CC(N)=O)C(=O)N[C@H](C(=O)N1CCC[C@H]1C(N)=O)[C@@H](C)O)C(C)C)[C@@H](C)O` [Example 161, N-alpha-[(S)-4-Carboxy-4-(19-carboxynonadecanoylamino)butyryl]-Glu-Arg-[Glu1,Glu14,Arg17,Gln21,Pro37]-pramlintide] ({C20 diacid-γGlu}-ERECNTATCATQRLAEFLRHSSQNFGPILPPTNVGSNTP-NH2; disulfide 4-9 (inferred)), the “ThT pH 4.0 lag time (physical stability in fibrillogenesis assay)” value is reported as above 45 h.

The data set is the same for the next values; noted with them: pH 4.0, ThT fibrillation assay.
With `CC[C@H](C)[C@H](NC(=O)[C@@H]1CCCN1C(=O)CNC(=O)[C@H](Cc1ccccc1)NC(=O)[C@H](CC(N)=O)NC(=O)[C@H](CCC(N)=O)NC(=O)[C@H](CO)NC(=O)[C@H](CO)NC(=O)[C@H](Cc1c[nH]cn1)NC(=O)[C@H](CCCNC(=N)N)NC(=O)[C@H](CC(C)C)NC(=O)[C@H](Cc1ccccc1)NC(=O)[C@H](CCC(=O)O)NC(=O)[C@H](C)NC(=O)[C@H](CC(C)C)NC(=O)[C@H](CCCNC(=N)N)NC(=O)[C@H](CCC(N)=O)NC(=O)[C@@H](NC(=O)[C@H](C)NC(=O)[C@@H]1CSSC[C@H](NC(=O)[C@H](CCC(=O)O)NC(=O)[C@H](CCCNC(=N)N)NC(=O)[C@H](CCC(=O)O)NC(=O)CC[C@H](NC(=O)CCCCCCCCCCCCCCCCCCC(=O)O)C(=O)O)C(=O)N[C@@H](CC(N)=O)C(=O)N[C@@H]([C@@H](C)O)C(=O)N[C@@H](C)C(=O)N[C@@H]([C@@H](C)O)C(=O)N1)[C@@H](C)O)C(=O)N[C@@H](CC(C)C)C(=O)N1CCC[C@H]1C(=O)N1CCC[C@H]1C(=O)N[C@H](C(=O)N[C@@H](CC(N)=O)C(=O)N[C@H](C(=O)NCC(=O)N[C@@H](CO)C(=O)N[C@@H](CC(N)=O)C(=O)N[C@H](C(=O)N1CCC[C@H]1C(N)=O)[C@@H](C)O)C(C)C)[C@@H](C)O` [Example 161, N-alpha-[(S)-4-Carboxy-4-(19-carboxynonadecanoylamino)butyryl]-Glu-Arg-[Glu1,Glu14,Arg17,Gln21,Pro37]-pramlintide] ({C20 diacid-γGlu}-ERECNTATCATQRLAEFLRHSSQNFGPILPPTNVGSNTP-NH2; disulfide 4-9 (inferred)), the “ThT pH 4.0 lag time” value is above 45 h. The same measure, in the same setting: under `CC[C@H](C)[C@H](NC(=O)[C@@H]1CCCN1C(=O)CNC(=O)[C@H](Cc1ccccc1)NC(=O)[C@H](CC(N)=O)NC(=O)[C@H](CO)NC(=O)[C@H](CO)NC(=O)[C@H](CO)NC(=O)[C@H](Cc1c[nH]cn1)NC(=O)[C@H](CCCNC(=N)N)NC(=O)[C@H](CC(C)C)NC(=O)[C@H](Cc1ccccc1)NC(=O)[C@H](CCC(=O)O)NC(=O)[C@H](C)NC(=O)[C@H](CC(C)C)NC(=O)[C@H](CCCNC(=N)N)NC(=O)[C@H](CCC(N)=O)NC(=O)[C@@H](NC(=O)[C@H](C)NC(=O)[C@@H]1CSSC[C@H](NC(=O)[C@H](Cc2c[nH]cn2)NC(=O)CC[C@H](NC(=O)CCCCCCCCCCCCCCCCCCC(=O)O)C(=O)O)C(=O)N[C@@H](CC(N)=O)C(=O)N[C@@H]([C@@H](C)O)C(=O)N[C@@H](C)C(=O)N[C@@H]([C@@H](C)O)C(=O)N1)[C@@H](C)O)C(=O)N[C@@H](CC(C)C)C(=O)N[C@@H](CO)C(=O)N[C@@H](CO)C(=O)N[C@H](C(=O)N[C@@H](CC(N)=O)C(=O)N[C@H](C(=O)NCC(=O)N[C@@H](CO)C(=O)N[C@@H](Cc1c[nH]cn1)C(=O)N[C@H](C(=O)N[C@@H](Cc1ccc(O)cc1)C(N)=O)[C@@H](C)O)C(C)C)[C@@H](C)O` [Example 111, N-alpha-[(S)-4-Carboxy-4-(19-carboxynonadecanoylamino)butyryl]-[His1,Glu14,Arg17,Ser21,Ser28,Ser29,His35]-pramlintide] ({C20 diacid-γGlu}-HCNTATCATQRLAEFLRHSSSNFGPILSSTNVGSHTY-NH2; disulfide 2-7) stands above 45 h; under `CC[C@H](C)[C@H](NC(=O)[C@@H]1CCCN1C(=O)CNC(=O)[C@H](Cc1ccccc1)NC(=O)[C@H](CC(N)=O)NC(=O)[C@H](CC(N)=O)NC(=O)[C@H](CO)NC(=O)[C@H](CO)NC(=O)[C@H](Cc1c[nH]cn1)NC(=O)[C@H](Cc1c[nH]cn1)NC(=O)[C@H](CC(C)C)NC(=O)[C@H](Cc1ccccc1)NC(=O)[C@H](CCC(=O)O)NC(=O)[C@H](C)NC(=O)[C@H](CC(C)C)NC(=O)[C@H](CCCNC(=N)N)NC(=O)[C@H](CCC(N)=O)NC(=O)[C@@H](NC(=O)[C@H](C)NC(=O)[C@@H]1CSSC[C@H](NC(=O)[C@H](Cc2c[nH]cn2)NC(=O)CC[C@H](NC(=O)CCCCCCCCCCCCCCCCCCC(=O)O)C(=O)O)C(=O)N[C@@H](CC(N)=O)C(=O)N[C@@H]([C@@H](C)O)C(=O)N[C@@H](C)C(=O)N[C@@H]([C@@H](C)O)C(=O)N1)[C@@H](C)O)C(=O)N[C@@H](CC(C)C)C(=O)N1CCC[C@H]1C(=O)N1CCC[C@H]1C(=O)N[C@H](C(=O)N[C@@H](CC(N)=O)C(=O)N[C@H](C(=O)NCC(=O)N[C@@H](CO)C(=O)N[C@@H](Cc1c[nH]cn1)C(=O)N[C@H](C(=O)N[C@@H](Cc1ccc(O)cc1)C(N)=O)[C@@H](C)O)C(C)C)[C@@H](C)O` [Example 76, N-alpha-[(S)-4-Carboxy-4-(19-carboxynonadecanoylamino)butyryl]-[His1,Glu14,His17,His35]-pramlintide] ({C20 diacid-γGlu}-HCNTATCATQRLAEFLHHSSNNFGPILPPTNVGSHTY-NH2; disulfide 2-7), above 45 h.

For the compound `CC[C@H](C)[C@H](NC(=O)[C@@H]1CCCN1C(=O)CNC(=O)[C@H](Cc1ccccc1)NC(=O)[C@H](CC(N)=O)NC(=O)[C@H](CC(N)=O)NC(=O)[C@H](CO)NC(=O)[C@H](CO)NC(=O)[C@H](Cc1c[nH]cn1)NC(=O)[C@H](Cc1c[nH]cn1)NC(=O)[C@H](CC(C)C)NC(=O)[C@H](Cc1ccccc1)NC(=O)[C@H](CCC(=O)O)NC(=O)[C@H](C)NC(=O)[C@H](CC(C)C)NC(=O)[C@H](CCCNC(=N)N)NC(=O)[C@H](CCC(N)=O)NC(=O)[C@@H](NC(=O)[C@H](C)NC(=O)[C@@H]1CSSC[C@H](NC(=O)[C@H](CCCCN)NC(=O)CC[C@H](NC(=O)CCCCCCCCCCCCCCCCCCC(=O)O)C(=O)O)C(=O)N[C@@H](CC(N)=O)C(=O)N[C@@H]([C@@H](C)O)C(=O)N[C@@H](C)C(=O)N[C@@H]([C@@H](C)O)C(=O)N1)[C@@H](C)O)C(=O)N[C@@H](CC(C)C)C(=O)N1CCC[C@H]1C(=O)N1CCC[C@H]1C(=O)N[C@H](C(=O)N[C@@H](CC(N)=O)C(=O)N[C@H](C(=O)NCC(=O)N[C@@H](Cc1c[nH]cn1)C(=O)N[C@@H](CC(N)=O)C(=O)N[C@H](C(=O)N[C@@H](Cc1ccc(O)cc1)C(N)=O)[C@@H](C)O)C(C)C)[C@@H](C)O` [Example 115, N-alpha-[(S)-4-Carboxy-4-(19-carboxynonadecanoylamino)butyryl]-[Glu14,His17,His34]-pramlintide] ({C20 diacid-γGlu}-KCNTATCATQRLAEFLHHSSNNFGPILPPTNVGHNTY-NH2; disulfide 2-7 (inferred)), the “ThT pH 4.0 lag time” value was above 45 h.

The values above are taken from patent US8741836B2, “Polypeptides” (Novo Nordisk A/S, priority 2011, dated 2014).
